Laboratory results reported in patent US20040242587A1, “Pyrrolo[1,2-b]pyridazine compounds” (Pfizer Inc, priority 2003, published 2004).

SMILES	melting point
Cc1cc(N2CCC3(CC2)OCCO3)c2cc(C)c(-c3ccc(Cl)cc3Cl)n2n1 [Example 8, 8-[7-(2,4-Dichlorophenyl)-2,6-dimethylpyrrolo[1,2-b]pyridazin-4-yl]-1,4-dioxa-8-azaspiro[4,5]decane]	193.2 to 196.4 °C
Cc1cc(N2CCC(=O)CC2)c2cc(C)c(-c3ccc(Cl)cc3Cl)n2n1 [Example 9, 1-[7-(2,4-Dichlorophenyl)-2,6-dimethylpyrrolo[1,2-b]pyridazin-4-yl]piperidin-4-one]	169.7 to 171.3 °C
Cc1cc(N2CC=C(C(N)=O)CC2)c2cc(C)c(-c3ccc(Cl)cc3Cl)n2n1 [Example 11, 1-[7-(2,4-Dichlorophenyl)-2,6-dimethylpyrrolo[1,2-b]pyridazin-4-yl]-1,2,3,6-tetrahydropyridine-4-carboxamide]	> 212 °C (dec.)
Cc1cc(N[C@@H]2CN(C(=O)OCc3ccccc3)C[C@@H]2O)c2cc(C)c(-c3ccc(Cl)cc3Cl)n2n1 [Example 1, Benzyl (3R,4S)-3-{[7-(2,4-dichlorophenyl)-2.6-dimethylpyrrolo[1,2-b]pyridazin-4-yl]amino}-4-hydroxypvrrolidine-1-carboxylate]	105 to 110 °C
